± gives the standard deviation of the averaged measurements.

Compound in one test: COc1cc(CCc2cc(NC(=O)c3ccc(N4CC(C)NC(C)C4)cc3)n[nH]2)cc(OC)c1 [AZD4547]
The test is described as follows: surviving fraction relative to DMSO-only wells; higher = less growth inhibition. As to conditions: exposure time: 5 days. In short, it runs like this:
(§1)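 A line counted only if its three screens reached replicate Pearson r >0.7 and median Z' >0.3. Tumour cells in log phase were seeded at 250–500 per well in 384-well plates and, after 24 hours, kept in continuous contact with inhibitors at 0.5, 1, 5, 10, 50, 100, 500 and 1000 nM for five days. Surviving fraction was taken from CellTiter-Glo luminescence relative to the median of DMSO-only wells.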

Compound in a further test: CCC1=C[C@@H]2CN(C1)Cc1c([nH]c3ccccc13)[C@@](C(=O)OC)(c1cc3c(cc1OC)N(C)[C@H]1[C@@](O)(C(=O)OC)[C@H](OC(C)=O)[C@]4(CC)C=CCN5CC[C@]31[C@@H]54)C2 [VINORELBINE]
The test is described as above. As to conditions: exposure time: 5 days. In outline:
as §1

G292 BONE: the surviving fraction with AZD4547 (0.5 nM) amounted to 0.93 ± 0.062; with AZD4547 (1 nM) it was 0.917 ± 0.035; with AZD4547 (5 nM) it was 0.801 ± 0.018; in the test with AZD4547 (10 nM) it was 0.566 ± 0.0083; in the test with AZD4547 (50 nM), 0.207 ± 0.0036; in the test with AZD4547 (100 nM) it was 0.173 ± 0.011. The surviving fraction with AZD4547 (500 nM) stood at 0.138 ± 0.021; with AZD4547 (1000 nM), 0.107 ± 0.0059; with VINORELBINE (0.5 nM), 0.962 ± 0.012; in the test with VINORELBINE (1 nM), 1.01 ± 0.045; in the test with VINORELBINE (5 nM), 0.704 ± 0.0075; in the test with VINORELBINE (10 nM), 0.416 ± 0.013. Moreover, the surviving fraction is 0.221 ± 0.02 in the test with VINORELBINE (50 nM), 0.189 ± 0.0081 with VINORELBINE (100 nM), 0.144 ± 0.013 in the test with VINORELBINE (500 nM) and 0.105 ± 0.011 with VINORELBINE (1000 nM).
Regarding LNCAP PROSTATE, the surviving fraction with AZD4547 (0.5 nM) came out at 0.881 ± 0.092; in the test with AZD4547 (1 nM) it was 0.995 ± 0.12; with AZD4547 (5 nM) it was 0.861 ± 0.036; in the test with AZD4547 (10 nM), 0.829 ± 0.043; with AZD4547 (50 nM), 0.821 ± 0.13; in the test with AZD4547 (100 nM) it was 0.903 ± 0.037. The surviving fraction with AZD4547 (500 nM) turned out to be 0.752 ± 0.11; in the test with AZD4547 (1000 nM), 0.857 ± 0.25; in the test with VINORELBINE (0.5 nM) it was 0.816 ± 0.12; with VINORELBINE (1 nM) it was 0.843 ± 0.12; in the test with VINORELBINE (5 nM), 0.667 ± 0.038; with VINORELBINE (10 nM), 0.458 ± 0.056. The surviving fraction in the test with VINORELBINE (50 nM) amounted to 0.06 ± 0.0053; with VINORELBINE (100 nM), 0.054 ± 0.0044; with VINORELBINE (500 nM), 0.058 ± 0.001; in the test with VINORELBINE (1000 nM), 0.0507 ± 0.0083.
SCC003 HEADNECK: the surviving fraction with AZD4547 (0.5 nM) is 1.05 ± 0.091; with AZD4547 (1 nM), 1.03 ± 0.014; with AZD4547 (5 nM), 1.13 ± 0.06; with AZD4547 (10 nM) it was 1.1 ± 0.083; with AZD4547 (50 nM), 1.07 ± 0.021; in the test with AZD4547 (100 nM), 1.1 ± 0.065. Moreover, the surviving fraction with AZD4547 (500 nM) is 1.02 ± 0.088; with AZD4547 (1000 nM) it was 0.996 ± 0.071; in the test with VINORELBINE (0.5 nM) it was 1.02 ± 0.16; in the test with VINORELBINE (1 nM), 1.08 ± 0.067; with VINORELBINE (5 nM) it was 0.967 ± 0.13; with VINORELBINE (10 nM), 0.862 ± 0.064. The surviving fraction in the test with VINORELBINE (50 nM) is 0.271 ± 0.039; in the test with VINORELBINE (100 nM), 0.256 ± 0.02; in the test with VINORELBINE (500 nM) it was 0.34 ± 0.045; in the test with VINORELBINE (1000 nM) it was 0.311 ± 0.036.
As for HUO3N1 BONE, the surviving fraction with AZD4547 (0.5 nM) amounted to 1.01 ± 0.05; in the test with AZD4547 (1 nM), 0.976 ± 0.015; in the test with AZD4547 (5 nM), 1.05 ± 0.059; in the test with AZD4547 (10 nM), 0.95 ± 0.072; with AZD4547 (50 nM), 0.85 ± 0.022; with AZD4547 (100 nM), 0.816 ± 0.018. Also, the surviving fraction with AZD4547 (500 nM) came to 0.693 ± 0.04; with AZD4547 (1000 nM), 0.608 ± 0.018; with VINORELBINE (0.5 nM) it was 1.01 ± 0.032; with VINORELBINE (1 nM) it was 1.02 ± 0.012; with VINORELBINE (5 nM), 1.03 ± 0.039; with VINORELBINE (10 nM), 0.935 ± 0.017. Moreover, the surviving fraction in the test with VINORELBINE (50 nM) was 0.308 ± 0.039; with VINORELBINE (100 nM), 0.182 ± 0.025; in the test with VINORELBINE (500 nM), 0.183 ± 0.0055; with VINORELBINE (1000 nM), 0.179 ± 0.018.
For the test system C33A CERVIX, the surviving fraction in the test with AZD4547 (0.5 nM) was found to be 0.847 ± 0.084; with AZD4547 (1 nM), 0.948 ± 0.074; in the test with AZD4547 (5 nM) it was 0.96 ± 0.027; with AZD4547 (10 nM) it was 0.969 ± 0.099; with AZD4547 (50 nM) it was 0.915 ± 0.015; with AZD4547 (100 nM), 0.953 ± 0.1. Further, the surviving fraction is 0.811 ± 0.024 in the test with AZD4547 (500 nM); 0.75 ± 0.086 in the test with AZD4547 (1000 nM); 1.02 ± 0.15 with VINORELBINE (0.5 nM); 1.02 ± 0.1 with VINORELBINE (1 nM); 1.03 ± 0.11 with VINORELBINE (5 nM); 0.78 ± 0.04 with VINORELBINE (10 nM). The surviving fraction came out at 0.121 ± 0.0098 with VINORELBINE (50 nM), 0.102 ± 0.028 with VINORELBINE (100 nM), 0.0543 ± 0.026 in the test with VINORELBINE (500 nM) and 0.0423 ± 0.0078 in the test with VINORELBINE (1000 nM).
For the test system HCC1395 BREAST, the surviving fraction is 0.849 ± 0.077 in the test with AZD4547 (0.5 nM); 0.904 ± 0.088 with AZD4547 (1 nM); 0.849 ± 0.07 in the test with AZD4547 (5 nM); 0.748 ± 0.11 with AZD4547 (10 nM); 0.79 ± 0.072 with AZD4547 (50 nM); 0.804 ± 0.1 with AZD4547 (100 nM). In addition, the surviving fraction in the test with AZD4547 (500 nM) worked out at 0.698 ± 0.06; in the test with AZD4547 (1000 nM) it was 0.762 ± 0.19; with VINORELBINE (0.5 nM) it was 1.04 ± 0.21; in the test with VINORELBINE (1 nM) it was 1.09 ± 0.16; with VINORELBINE (5 nM), 1.13 ± 0.077; with VINORELBINE (10 nM), 1.11 ± 0.031. Also, the surviving fraction with VINORELBINE (50 nM) was 0.952 ± 0.083; in the test with VINORELBINE (100 nM), 0.727 ± 0.12; with VINORELBINE (500 nM), 0.575 ± 0.16; with VINORELBINE (1000 nM), 0.467 ± 0.057.
For CAL72 BONE, the surviving fraction with AZD4547 (0.5 nM) is 1.08 ± 0.022; in the test with AZD4547 (1 nM), 1.096 ± 0.0035; with AZD4547 (5 nM), 1.05 ± 0.043; with AZD4547 (10 nM), 0.791 ± 0.067; with AZD4547 (50 nM), 0.331 ± 0.028; with AZD4547 (100 nM), 0.257 ± 0.013. In addition, the surviving fraction was 0.19 ± 0.031 in the test with AZD4547 (500 nM); 0.158 ± 0.026 with AZD4547 (1000 nM); 1.04 ± 0.036 with VINORELBINE (0.5 nM); 1.05 ± 0.036 in the test with VINORELBINE (1 nM); 1 ± 0.024 with VINORELBINE (5 nM); 0.9417 ± 0.0083 with VINORELBINE (10 nM). The surviving fraction in the test with VINORELBINE (50 nM) is 0.43 ± 0.056; in the test with VINORELBINE (100 nM) it was 0.34 ± 0.05; with VINORELBINE (500 nM) it was 0.213 ± 0.018; with VINORELBINE (1000 nM) it was 0.213 ± 0.026.

Values taken from the supplement of paper PMC6045584.
